{"source": "patent US20110143960A1", "about": "“3D-MODELS FOR HIGH-THROUGHPUT SCREENING DRUG DISCOVERY AND DEVELOPMENT” (priority 2009, published 2011)", "key": {"[1]": {"system": "VimPro-Fluc-MDA-MB-231 cells", "format": "cell-based", "settings": "VimPro-Fluc-MDA-MB-231 monolayer, 72 h", "protocol": "(§1) A 2D-screen was conducted with small molecule antitumor agents, growth factors or antibodies (FIG. 2B). All cells were cultured in 100 mm tissue culture dishes in RPMI-1640 supplemented with 10% FBS and maintained in a 5% CO2 incubator at 37° C. VimPro-Fluc-MDA-MB-231 and VimPro-Fluc-PMC42-LA were seeded at 5,000 cells/well into 96-well white plates and incubated overnight for 16 h. VimPro-Fluc-PMC42-LA and VimPro-Fluc-MDA-MB-231 cells were treated for 72 h. The treatment medium was replaced with 50 μL fresh medium, then 50 μL of One-Glo Luciferase reagent and incubated at room temperature for 10 min. Luminescence was recorded with an integration time of 1 sec/well using a luminescence microplate reader."}, "[2]": {"system": "VimPro-Fluc-PMC42-LA cells", "format": "cell-based", "settings": "VimPro-Fluc-PMC42-LA monolayer, 10 ng/mL EGF, 72 h", "protocol": "as §1"}, "[3]": {"system": "VimPro-Fluc-MDA-MB-231 spheroids", "experiment": "Live 3D-spheroid vimentin expression assay (VimPro-Fluc, DMNPE-caged luciferin)", "format": "cell-based", "settings": "read-out: IC50 vimentin expression, dose response", "experimental": "Uniform single-spheroids of MDA-MB-231 and VimPro-Fluc-MDA-MB-231 breast carcinoma cells were cultured in 96-well flat bottom plates coated with 50 μL of a 1.5% agarose (weight/volume) solution in serum free RPMI-1640 (no phenol red) medium (freshly autoclaved at 121° C. for 15 min). During the coating process the agarose/RPMI-1640 solution was maintained at >60° C. followed by cooling and setting at room temperature for 40 min. Cells were plated at a density of 10,000 cells/well in 50 μL of RPMI-1640 (10% FBS, no phenol red) and centrifuged at 1,000 rpm for 15 min to induce cell aggregation. […]\nVimPro-Fluc-MDA-MB-231 spheroids were cultured in 96-well optical bottom white plates and treated as described above. On day 8, after 72 h treatment with control EMT modulators, live spheroid vimentin expression was measured by adding 10 μL (final 12.5 μM) of DMNPE-caged luciferin to each well and incubating at 37° C., 5% CO2 for 2 h.\nUniform single spheroids were cultured in 96-well optical bottom white plates as described above and treated on day 5. […] After 72 h, vimentin expression was measured by adding 10 μL (final 12.5 μM) of DMNPE-caged luciferin to each well and incubated for 2 h (37° C., 5% CO2). Luminescence was recorded with an integration time of 1 second/well (FIG. 9A-D)."}, "[4]": {"system": "vimentin in MDA-MB-231 spheroids", "experiment": "Immunofluorescent vimentin staining of whole and sectioned spheroids (confocal)", "format": "cell-based", "settings": "whole spheroid, outer surface / peripheral layer; U0126 10 μM 72 h", "experimental": "Confocal 3D imaging emphasizes a surface edge of MDA-MB-231 spheroids untreated or treated with (10 μM) U0126 for 72 hours.\nSpheroids were fixed with 50 μL of 3.7% formaldehyde for 10 min at room temperature. They were then washed once with PBS and 50 μL of 0.2% Triton X-100 in PBS (v/v) were added for 10 min at room temperature to permeate cells. Next they were blocked with 50 μL of cell culture medium (10% FBS) for 1 h at room temperature. Blocking medium was then aspirated and sphroids were treated with mouse anti-vimentin at 1:100 in TBST containing 20% cell culture medium (v/v) with shaking at 4° C. overnight. They were then washed (3×TBST) and stained with FITC green fluorescent conjugated goat anti-mouse secondary antibody at 1:1,000 and with DAPI (4′,6-diamidino-2-phenylindole) at 1:1,000 in TBST containing 20% cell culture medium (v/v) for 1 h at room temperature and washed with TBST 4×. After fixing with formaldehyde, some spheroids were sectioned using a Leica CM 1950 cryostat (Leica Microsystems; Germany) with thickness of 10 μm. Spheroid sections were washed with PBS and stained as described above. Spheroid sections on slides were covered with mounting medium and cover slips. Imaging of whole spheroids was done with an UltraVIEW® VoX 3D confocal microscope (Perkin Elmer) using a 20× objective. Spheroid sections were imaged using a Nikon D-Eclipse Cl confocal microscope system (Nikon Instruments Inc; Melville, N.Y.).\nVimentin expression in VimPro-Fluc-MDA-MB-231 spheroids was further assessed by immunofluorescent staining of whole spheroids treated with U0126."}, "MDA-MB-231 spheroids [5]": {"system": "MDA-MB-231 spheroids", "experiment": "Modified Boyden chamber cell invasion assay of cells dissociated from spheroids", "format": "cell-based", "settings": "control modulators, 72 h treatment, 24 h invasion, FIG. 6", "protocol": "Spheroids were treated as in the primary assay. Following treatment, each sample group was disassociated into single cell suspensions and seeded into invasion chambers followed by a 24 h incubation period. VimPro-Fluc-MDA-MB-231 spheroids were treated with control EMT modulators as described using 15 spheroids per sample group. The spheroids for each sample group were pooled into 1.5 ml, micro tubes and collected by centrifugation at 10,000 rpm for 10 min at room temperature.\nEach sample group was then treated with 200 μL of spheroid dissociation solution (0.25% trypsin-EDTA) and incubated at 37° C. for 30 min. Single cell suspensions of each group in RPMI-1640 medium containing 0.1% BSA were seeded at 35,000 cells/chamber (50 μL) into the top chambers of a 96-well invasion plate (BD Biosciences; Bedford, Mass.) previously coated with 50 μL of […]™ (40 μg/mL protein in RPMI-1640 medium). Chemoattractant (10%\nFBS in RPMI-1640 medium, 150 μL) was added to each bottom chamber and the plate was incubated (37° C., 5% CO2) for 24 h. Following incubation the insert was removed and the medium aspirated from both top and bottom chambers. […] Each side of the membrane insert was washed 2× by adding 200 μL PBS-CMF (Ca/Mg free) to the bottom chamber, replacing the insert and adding 50 μL PBS-CMF to the top chamber. The PBS-CMF was removed and the invading cells were fixed with 200 μL of 4% paraformaldahyde in the bottom chambers at 37° C. for 15 min. The insert was washed 2× with PBS-CMF as described above. The invading cells were subsequently stained with 200 μL of DAPI (3 μg/mL) in PBS-CMF for 30 min at room temperature and washed 4×, as described above, in 15 min intervals. Invading cells were quantified using five random fields per filter insert in triplicate at 20× magnification using a fluorescent microscope equipped with metamorph image analysis and quantification software (Molecular Devices; Downingtown, Pa.)."}, "[6]": {"system": "EGF-treated PMC42-LA cells", "protocol": "(§2) Cell lines were cultured as monolayers in 96-well microplates and treated with U0126, the specific inhibitor of mitogen-activated protein kinase kinase (MEK1)."}, "MDA-MB-231 cells": {"system": "MDA-MB-231 cells", "protocol": "as §2"}, "MDA-MB-231 spheroids [7]": {"system": "MDA-MB-231 spheroids", "experiment": "Spheroid viability, APH assay multiplexed after vimentin readout", "format": "cell-based", "settings": "for spheroid death (control of APH assay): 10% Triton X-100, 2 h prior to APH analysis", "protocol": "Cell Viability To support the primary assay hit validation, two cell viability assays have been developed: the acid phosphatase assay (APH) and the cell-titer-glow (Promega®). Both assays give robust reproducible results in both 2D and 3D cell culture. We can also multiplex these assays using live VimPro-Fluc stable 3D-spheroids (FIG. 5). On day 8, vimentin expression was measured (luminescence as RLU/s), using a live cell permeable luciferin reagent, followed by multiplexing with the APH assay (OD405). […] Thus, downregulation of VimPro-Fluc activity by the control modulators is not due to spheroid death.\nUniform single spheroids were cultured in 96-well optical bottom white plates as described above and treated on day 5. To avoid edge effects the outer wells were unused and filled with sterilized water. 15 μL of controls and marine natural products were added to each well at final concentrations described above. After 72 h, vimentin expression was measured by adding 10 μL (final 12.5 μM) of DMNPE-caged luciferin to each well and incubated for 2 h (37° C., 5% CO2). Luminescence was recorded with an integration time of 1 second/well (FIG. 9A-D). Directly following the primary assay measuring vimentin expression, spheroid viability was multiplexed using the APH assay. Hits were confirmed using the cell invasion assay (FIG. 9E)."}}, "note": "Entries after “also recorded” stand apart in the source; their conditions may differ. Read-outs that look alike come from different tables or passages of the source.", "data": [{"compound": "N#CC(=C(/N)Sc1ccccc1N)/C(C#N)=C(\\N)Sc1ccccc1N", "note": "[U0126]", "values": [{"measurement": "vimentin expression", "setting": "[1]", "value": "significant downregulation of vimentin expression"}, {"measurement": "EGF-induced EMT (vimentin upregulation)", "setting": "[2]", "value": "significantly inhibited"}, {"measurement": "IC50", "setting": "[3]", "value": 2500, "unit": "nM"}, {"measurement": "vimentin protein expression by immunofluorescence", "setting": "[4]", "value": "overall vimentin downregulation; also recorded: Significant downregulation of vimentin protein expression; also recorded: repression of Vimentin expression"}, {"measurement": "inhibition of invasive potential vs untreated spheroids", "setting": "MDA-MB-231 spheroids [5]", "value": "about 90%"}, {"measurement": "invasive potential of MDA-MB-231 spheroids (in words)", "setting": "MDA-MB-231 spheroids [5]", "value": "significant inhibition"}, {"measurement": "invasive potential", "setting": "[6]", "value": "significantly diminished"}, {"measurement": "invasive potential", "setting": "MDA-MB-231 cells", "value": "significantly diminished"}]}, {"compound": "COc1c(OC)c2c(c(CCN(C)C)c1SC)Sc1c(CCN(C)C)c(SC)c(OC)c(OC)c1S2", "note": "[lissoclinotoxin E]", "values": [{"measurement": "spheroid viability vs untreated spheroids on day 5", "setting": "MDA-MB-231 spheroids [7]; marine natural product hits, 10 μM, 72 h, APH assay", "value": "exception; also recorded: statistically significant decrease in spheroid viability"}]}, {"compound": "C[C@@H](Oc1cc(-c2cnn(C3CCNCC3)c2)cnc1N)c1c(Cl)ccc(F)c1Cl", "note": "[PF2341066, PF-2341066]", "values": [{"measurement": "inhibition of invasive potential vs untreated spheroids", "setting": "MDA-MB-231 spheroids [5]", "value": "about 90%"}, {"measurement": "invasive potential of MDA-MB-231 spheroids (in words)", "setting": "MDA-MB-231 spheroids [5]", "value": "significant inhibition"}]}, {"compound": "CNC(=O)c1ccccc1Sc1ccc2c(/C=C/c3ccccn3)n[nH]c2c1", "note": "[Axitinib]", "values": [{"measurement": "IC50", "setting": "[3]; VimPro-Fluc spheroids, FIG. 8B", "value": 250, "unit": "nM"}]}, {"compound": "Triton X-100", "values": [{"measurement": "spheroid death (control of APH assay)", "setting": "MDA-MB-231 spheroids [7]", "value": "significantly induces spheroid death"}, {"measurement": "spheroid death (control of APH assay)", "setting": "MDA-MB-231 spheroids [7]; listed as Triton-X-100", "value": "significantly induced spheroid death"}]}, {"compound": "CO[C@@H]1[C@H](N(C)C(=O)c2ccccc2)C[C@H]2O[C@]1(C)n1c3ccccc3c3c4c(c5c6ccccc6n2c5c31)C(=O)NC4", "note": "[PKC412]", "values": [{"measurement": "invasive potential of MDA-MB-231 spheroids (in words)", "setting": "MDA-MB-231 spheroids [5]", "value": "significant inhibition"}]}, {"compound": "COc1cc2ncnc(Nc3cccc(Cl)c3)c2cc1OC", "note": "[AG1478]", "values": [{"measurement": "vimentin expression", "setting": "[1]", "value": "no statistically significant effect"}, {"measurement": "EGF-induced EMT (vimentin upregulation)", "setting": "[2]", "value": "significantly inhibited"}]}]}
